Reference: ChEMBL document CHEMBL5576071, “Structure optimization of Cmpd-15 as negative allosteric modulators for the β2-adrenergic receptor” (Bioorg Med Chem, 2024)

Key:
[1] = target: Beta-2 adrenergic receptor (Homo sapiens) (UniProt P07550); test: Potency index, ratio of 4-((2S)-3-(((S)-3-(3-bromophenyl)-1-(methylamino)-1-oxopropan-2-yl)amino)-2-(2-cyclohexyl-2-phenylacetamido)-3-oxopropyl)benzamide Imax to test compound Imax for negative allosteric modulation of beta-2 adrenergic receptor (unknown origin) transfected in HEK293 cells assessed as decrease in cAMP accumulation at 50 uM preincubated for 20 mins followed by ISO treatment for 5 mins for by Glo sensor assay; assay type: functional, cell-based; settings: filed as negative allosteric modulator, time 25.0 min
Chain of Beta-2 adrenergic receptor (Homo sapiens) (P07550 whole entry, looked up): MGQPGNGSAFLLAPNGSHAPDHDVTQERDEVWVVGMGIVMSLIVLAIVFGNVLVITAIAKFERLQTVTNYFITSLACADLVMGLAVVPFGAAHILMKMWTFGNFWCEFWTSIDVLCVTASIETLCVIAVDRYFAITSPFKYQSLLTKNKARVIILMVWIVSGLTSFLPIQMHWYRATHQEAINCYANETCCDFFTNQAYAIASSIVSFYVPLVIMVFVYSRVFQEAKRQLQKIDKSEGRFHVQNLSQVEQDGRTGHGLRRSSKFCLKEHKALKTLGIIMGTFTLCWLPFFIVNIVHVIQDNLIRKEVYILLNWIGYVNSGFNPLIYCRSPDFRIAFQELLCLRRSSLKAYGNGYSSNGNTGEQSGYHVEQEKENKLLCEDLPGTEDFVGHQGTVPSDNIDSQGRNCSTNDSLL

[2] = target: Beta-2 adrenergic receptor (Homo sapiens) (UniProt P07550); test: Negative allosteric modulation of beta-2 adrenergic receptor (unknown origin) transfected in HEK293 cells assessed as decrease in cAMP accumulation at 50 uM preincubated for 20 mins followed by ISO treatment for 5 mins for by Glo sensor assay relative to 4-((2S)-3-(((S)-3-(3-bromophenyl)-1-(methylamino)-1-oxopropan-2-yl)amino)-2-(2-cyclohexyl-2-phenylacetamido)-3-oxopropyl)benzamide; assay type: functional, cell-based; settings: filed as negative allosteric modulator, time 25.0 min
[3] = Metabolic stability in human liver microsomes assessed as hepatic extraction ratio at 1 uM preincubated for 5 mins followed by NADPH addition measured for 5 to 60 mins by LC-MS/MS analysis; assay type: ADME, Microsome; settings: time 10-65 min, read-out: ERH
[4] = Metabolic stability in human liver microsomes assessed as half life at 1 uM preincubated for 5 mins followed by NADPH addition measured for 5 to 60 mins by LC-MS/MS analysis; assay type: ADME, Microsome; settings: time 10-65 min
[5] = Metabolic stability in mouse liver microsomes assessed as hepatic extraction ratio at 1 uM preincubated for 5 mins followed by NADPH addition measured for 5 to 60 mins by LC-MS/MS analysis; assay type: ADME, Microsome; settings: time 10-65 min, read-out: ERH
[6] = Metabolic stability in mouse liver microsomes assessed as half life at 1 uM preincubated for 5 mins followed by NADPH addition measured for 5 to 60 mins by LC-MS/MS analysis; assay type: ADME, Microsome; settings: time 10-65 min

SMILES	Ratio [1]	Imax [2]	hepatic extraction ratio at 1 µM [3]	half-life at 1 µM [4]	hepatic extraction ratio at 1 µM [5]	half-life at 1 µM [6]
CNC(=O)[C@H](Cc1cccc(Br)c1)NC(=O)c1cc(-c2ccc(Br)cc2)nn1Cc1cccc(Br)c1	1.09	109%				
CNC(=O)[C@H](Cc1cccc(Br)c1)NC(=O)c1cc(-c2ccccc2)nn1Cc1ccc(F)cc1	1.14	114%				
CNC(=O)[C@H](Cc1cccc(Br)c1)NC(=O)c1cc(-c2ccc(F)cc2)nn1Cc1cccc(Br)c1	1.3	130%				
CNC(=O)[C@H](Cc1cccc(Br)c1)NC(=O)c1cc(-c2ccccc2Cl)nn1Cc1cccc(Br)c1	1.18	118%				
CNC(=O)[C@H](Cc1cccc(Br)c1)NC(=O)[C@H](Cc1ccc(C(N)=O)cc1)NC(=O)C(c1ccccc1)C1CCCCC1 (stereo not given in full)			0.993	1.53 min	0.986	2.19 min
CNC(=O)[C@H](Cc1cccc(Br)c1)NC(=O)c1cc(-c2cccc(Br)c2)nn1Cc1cccc(Br)c1	1	100%				
CNC(=O)[C@H](Cc1cccc(Br)c1)NC(=O)c1cc(-c2ccccc2[N+](=O)[O-])nn1Cc1cccc(Br)c1	1.2	120%				
CNC(=O)[C@H](Cc1cccc(Br)c1)NC(=O)c1cc(-c2ccccc2)nn1Cc1ccccc1C#N	0.67	67%				
CNC(=O)[C@H](Cc1cccc(Br)c1)NC(=O)c1cc(-c2ccccc2)nn1Cc1ccc(C#N)cc1	1	100%				
CNC(=O)[C@H](Cc1cccc(Br)c1)NC(=O)c1cc(-c2ccccc2Br)nn1Cc1cccc(Br)c1	0.91	91%				
CNC(=O)[C@H](Cc1cccc(Br)c1)NC(=O)c1cc(-c2ccccc2)nn1Cc1ccccc1F	1.43	143%	0.835	41.5 min	0.721	58.7 min

The next lines start with the values.

Ratio [1]	Imax [2]	hepatic extraction ratio at 1 µM [3]	half-life at 1 µM [4]	hepatic extraction ratio at 1 µM [5]	half-life at 1 µM [6]	SMILES
1.14	114%					CNC(=O)[C@H](Cc1cccc(Br)c1)NC(=O)c1cc(-c2ccccc2)nn1Cc1cccc(Cl)c1
1.27	127%					CNC(=O)[C@H](Cc1cccc(Br)c1)NC(=O)c1cc(-c2cccc(Cl)c2)nn1Cc1cccc(Br)c1
1.33	133%					CNC(=O)[C@H](Cc1cccc(Br)c1)NC(=O)c1cc(-c2ccccc2)nn1Cc1cccc(F)c1
1.14	114%					CNC(=O)[C@H](Cc1cccc(Br)c1)NC(=O)c1cc(-c2ccccc2)nn1Cc1ccc(Cl)cc1
1.14	114%					CNC(=O)[C@H](Cc1cccc(Br)c1)NC(=O)c1cc(-c2ccccc2)nn1Cc1ccccc1Cl
1.25	125%					CNC(=O)[C@H](Cc1cccc(Br)c1)NC(=O)c1cc(-c2ccccc2)nn1Cc1cccc(I)c1
